Results on 2 molecules are retold here after patent US20020107250A1, “Rapid-onset formulation of a selective cyclooxygenase-2 inhibitor” (priority 2000, published 2002).

Each structure is given as a SMILES string.

A short description of this data set: Solubility of celecoxib and valdecoxib in various solvent liquids. The data set is classed as physicochemical. The method, then:
Aliquots of a solvent liquid were then added dropwise in approximately 100 mg increments to the solid sample. The resulting mixture was vortexed and/or sonicated between aliquot additions. […] Solubility values preceded by the<symbol denote that, at the particular concentration shown, the mixture was still cloudy, i.e., not all of the drug was fully in dissolved form.

Turning to `Cc1onc(-c2ccccc2)c1-c1ccc(S(N)(=O)=O)cc1` [valdecoxib, 4-[5-methyl-3-phenylisoxazol-4-yl]benzenesulfonamide], under “DGME versus propylene glycol”, the “Advantage in solubility for DGME over propylene glycol” value is “approximately tenfold advantage in solubility”. Also, the Solubility by setting is: (solvent liquid: polyethylene glycol 400) 50 to 85 mg/g; (solvent liquid: propylene glycol) 10 to 20 mg/g.

Turning to `Cc1ccc(-c2cc(C(F)(F)F)nn2-c2ccc(S(N)(=O)=O)cc2)cc1` [celecoxib, 4-[5-(4-methylphenyl)-3-(trifluoromethyl)-1H-pyrazol-1-yl]benzenesulfonamide], the “Solubility in a DGME/water mixture compared with a PEG-400/water mixture” value (same ratio of mixture ingredients) was “significantly higher”. Besides, the Solubility fell in the range of 19 to 21 mg/g (solvent liquid: Capmul MCM (caprylic/capric mono- and diglycerides)); 288 to 297 mg/g (solvent liquid: Labrasol/DGME/propylene glycol laurate 40:40:20 w/w); 313 to 325 mg/g (solvent liquid: Labrasol/DGME/propylene glycol laurate 45:45:10 w/w); 6 to 12 mg/g (solvent liquid: Miglyol 812 (caprylic/capric triglycerides)); 24 to 40 mg/g (solvent liquid: Tagat TO (polyoxyethylene glyceryl trioleate)); 34 to 52 mg/g (solvent liquid: Tagat TO/Capmul MCM 1:1 w/w).
